Reference: patent US20120283332A1 (OHIO UNIVERSITY, priority 2009, published 2012)

Legend:
[1] = system: Type 2 diabetes; details: human, in vivo
[2] = system: DM2; details: oral metformin
[3] = oral; cited from earlier work
[4] = cited from earlier work

Row | Structure (SMILES) | tolerability of previously tried diabetic medications [1] | BS readings ([2]; before it was stopped) | side effects leading to stopping ([2]; stopped 3 months prior to visit) | absorption time [3] | patients experiencing a gastrointestinal side effect ([4]; oral metformin, anorexia, nausea, vomiting, abdominal discomfort, diarrhea) | patients discontinuing therapy due to side effects ([4]; oral metformin) | patients developing vitamin B12 deficiency ([4]; patients taking metformin)
1 | N[C@@H](CC(=O)N1CCn2c(nnc2C(F)(F)F)C1)Cc1cc(F)c(F)cc1F [sitagliptin] | unable to tolerate |  |  |  |  |  | 
2 | CN(C)C(=N)N=C(N)N [metformin] | unable to tolerate | improved | severe gastrointestinal side effects | 6 h | Up to 20% | up to 5% | 77%
3 | CCc1ccc(CCOc2ccc(CC3SC(=O)NC3=O)cc2)nc1 (stereo not drawn) [pioglitazone] | unable to tolerate |  |  |  |  |  | 
